In patent US20160039825A1 (BIOGEN MA INC., priority 2013, published 2016):

target: T1, Human ATX protein (Homo sapiens, UniProt Q13822); test: Autotaxin (ATX) assay, FRET with FS-3 substrate; type: biochemical; conditions: upper bound bins (no greater than 100, 250 or 500 nM); FS-3 2 μM, ATX 1.0 μg/mL
T1 construct: made in house
Outline: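 In-house human ATX (1.0 μg/mL final) was preincubated with compound for 30 min at room temperature in Tris buffer pH 7.4 with NaCl, KCl, CaCl2, MgCl2 and 1 mg/mL fatty acid-free BSA. FS-3 (2 μM final) was added and the plate shaken 2 h at room temperature in the dark. Fluorescence was read at ex 485/em 538 nm.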

SMILES	IC50 [nM]
CC(C)(C)OC(=O)N1CCC(c2cc3n(n2)CCN(C(=O)OCc2cc(C(F)(F)F)cc(C(F)(F)F)c2)C3)CC1 [Example 398, 3,5-bis(trifluoromethyl)benzyl 2-(1-(tert-butoxycarbonyl)piperidin-4-yl)-6,7-dihydropyrazolo[1,5-a]pyrazine-5(4H)-carboxylate]	≤ 100
CON(C)C(=O)c1cc2n(n1)CCCN(C(=O)OCc1cc(C(F)(F)F)cc(C(F)(F)F)c1)C2 [Example 144, 3,5-Bis(trifluoromethyl)benzyl 2-(methoxy(methyl)carbamoyl)-7,8-dihydro-4H-pyrazolo[1,5-a][1,4]diazepine-5(6H)-carboxylate]	≤ 100
CCOC(=O)c1nn2c(c1Cl)CN(C(=O)OCc1cc(C(F)(F)F)cc(C(F)(F)F)c1)CC2 [Example 112, 5-(3,5-Bis(trifluoromethyl)benzyl) 2-ethyl 3-chloro-6,7-dihydropyrazolo[1,5-a]pyrazine-2,5(4H)-dicarboxylate]	≤ 250
O=C(OCc1cc(Cl)cc(C(F)(F)F)c1)N1CCCn2nc(C(=O)N3CCC4CNCC43)cc2C1 (centres unmarked) [Example 165]	≤ 100
O=C(O)C1CC2CCCC(C1)N2C(=O)c1cc2n(n1)CCCN(C(=O)OCc1cc(F)cc(F)c1)C2 (centres unmarked) [Example 62, 9-(5-((3,5-Trifluorobenzyloxy)carbonyl)-5,6,7,8-tetrahydro-4H-pyrazolo[1,5-a][1,4]diazepine-2-carbonyl)-9-aza-bicyclo[3.3.1]nonane-3-carboxylic acid]	≤ 100
CN1CCN(C(=O)c2cc3n(n2)CCCN(C(=O)OCc2cc(Cl)cc(C(F)(F)F)c2)C3)C(C#N)C1 (centres unmarked) [Example 183]	≤ 100
O=C(OCc1cc(Cl)cc(C(F)(F)F)c1)N1CCCn2nc(CNC3=NCCS3)cc2C1 [Example 153, 3-chloro-5-(trifluoromethyl)benzyl 2-(((4,5-dihydrothiazol-2-yl)amino)methyl)-7,8-dihydro-4H-pyrazolo[1,5-a][1,4]diazepine-5(6H)-carboxylate]	≤ 100
O=C(O)c1nn2c(c1Cl)CN(C(=O)OCc1cc(C(F)(F)F)cc(C(F)(F)F)c1)CC2 [Example 113, 5-(((3,5-Bis(trifluoromethyl)benzyl)oxy)carbonyl)-3-chloro-4,5,6,7-tetrahydropyrazolo[1,5-a]pyrazine-2-carboxylic acid]	≤ 250
O=C(OCc1cc(Cl)cc(Cl)c1)N1CCCn2nc(C(=O)N3CCC(O)CC3)cc2C1 [Example 101, 3,5-Dichlorobenzyl 2-(4-hydroxypiperidine-1-carbonyl)-7,8-dihydro-4H-pyrazolo[1,5-a][1,4]diazepine-5(6H)-carboxylate]	≤ 100
O=C(O)c1cc2n(n1)CCCN(C(=O)COc1cc(C(F)(F)F)cc(C(F)(F)F)c1)C2 [Example 117, 5-(2-(3,5-Bis(trifluoromethyl)phenoxy)acetyl)-5,6,7,8-tetrahydro-4H-pyrazolo[1,5-a][1,4]diazepine-2-carboxylic acid]	≤ 500
O=C(OCc1cc(Cl)cc(Cl)c1)N1CCCn2nc(C(=O)N3CCNCC3)cc2C1 [Example 24, 3,5-Dichlorobenzyl 2-(piperazine-1-carbonyl)-7,8-dihydro-4H-pyrazolo[1,5-a][1,4]diazepine-5(6H)-carboxylate]	≤ 100
CN1CCN(C(=O)c2cc3n(n2)CCCN(C(=O)OCc2cc(Cl)cc(C(F)(F)F)c2)C3)C2(CC2)C1 [Example 180]	≤ 100
CCOC(=O)c1cc2n(n1)CCCN(C(=O)OCc1cc(C)cc(C(F)(F)F)c1)C2 [Example 105, 2-Ethyl 5-(3-methyl-5-(trifluoromethyl)benzyl) 7,8-dihydro-4H-pyrazolo[1,5-a][1,4]diazepine-2,5(6H)-dicarboxylate]	≤ 100
CN1C2CCC1CC(c1cc3n(n1)CCCN(C(=O)OCc1cc(C(F)(F)F)cc(C(F)(F)F)c1)C3)C2 (centres unmarked) [Example 381]	≤ 100
O=C(OCc1cc(Cl)cc(C(F)(F)F)c1)N1CCCn2nc(C(=O)N3CCNCC34CC4)cc2C1 [Example 210]	≤ 100
O=C(N[C@H]1CC[C@@H](C(=O)O)CC1)c1cc2n(n1)CCCN(C(=O)OCc1cc(Cl)cc(Cl)c1)C2 [Example 85, (cis)-4-(5-(((3,5-Dichlorobenzyl)oxy)carbonyl)-5,6,7,8-tetrahydro-4H-pyrazolo[1,5-a][1,4]diazepine-2-carboxamido)cyclohexanecarboxylic acid]	≤ 100
Cc1cc2n(n1)CCCN(C(=O)OCc1cc(Cl)cc(Cl)c1)C2 [Example 130, 3,5-Dichlorobenzyl 2-methyl-7,8-dihydro-4H-pyrazolo[1,5-a][1,4]diazepine-5(6H)-carboxylate]	≤ 500
CC(c1cc2n(n1)CCCN(C(=O)OCc1cc(C(F)(F)F)cc(C(F)(F)F)c1)C2)N1CCC(C(=O)O)CC1 (centres unmarked) [Example 149, 1-(1-(5-(((3,5-Bis(trifluoromethyl)benzyl)oxy)carbonyl)-5,6,7,8-tetrahydro-4H-pyrazolo[1,5-a][1,4]diazepin-2-yl)ethyl)piperidine-4-carboxylic acid]	≤ 500
CC1CN(C(=O)c2cc3n(n2)CCCN(C(=O)OCc2cc(Cl)cc(C(F)(F)F)c2)C3)CC(C)N1 (centres unmarked) [Example 198]	≤ 100
CN1CCN(C(=O)c2cc3n(n2)CCCN(C(=O)OCc2cc(C(F)(F)F)cc(C(F)(F)F)c2)C3)C(C)(C)C1 [Example 218]	≤ 100
O=C(OCc1cc(C(F)(F)F)cc(C(F)(F)F)c1)N1CCCn2cncc2C1 [Example 132, 3,5-Bis(trifluoromethyl)benzyl 6,7-dihydro-5H-imidazo[1,5-a][1,4]diazepine-8(9H)-carboxylate]	≤ 100
O=C(OCc1cc(Cl)cc(C(F)(F)F)c1)N1CCCn2nc(C(=O)N3C4CCC3CNC4)cc2C1 [Example 203]	≤ 100
O=C(OCc1cc(Cl)cc(C(F)(F)F)c1)N1CCCn2nc(C(=O)N3CCNC4(CC4)C3)cc2C1 [Example 187]	≤ 100
CC1CNCC(C)N1C(=O)c1cc2n(n1)CCCN(C(=O)OCc1cc(Cl)cc(C(F)(F)F)c1)C2 (centres unmarked) [Example 199]	≤ 100

Now from value to compound:

IC50 [nM]	SMILES
≤ 100	CN1CCN(C(=O)c2cc3n(n2)CCCN(C(=O)OCc2cc(C(F)(F)F)cc(C(F)(F)F)c2)C3)C2(CCCC2)C1 [Example 238]
≤ 100	CCCNC(=O)c1cc2n(n1)CCN(C(=O)OCc1cc(C(F)(F)F)cc(C(F)(F)F)c1)C2 [Example 481]
≤ 100	O=C(OCc1cc(C(F)(F)F)cc(C(F)(F)F)c1)N1CCCn2nc(Br)cc2C1 [Example 280]
≤ 500	CNCc1cc2n(n1)CCCN(C(=O)OCc1cc(C(F)(F)F)cc(C(F)(F)F)c1)C2 [Example 294]
≤ 100	CCN1CCN(C(=O)c2cc3n(n2)CCCN(C(=O)OCc2cc(C(F)(F)F)cc(C(F)(F)F)c2)C3)C(C)(C)C1 [Example 244]
≤ 100	O=C(OCc1cc(C(F)(F)F)cc(C(F)(F)F)c1)N1CCCn2nc(C3CCNCC3)cc2C1 [Example 375, 3,5-bis(trifluoromethyl)benzyl 2-(piperidin-4-yl)-7,8-dihydro-4H-pyrazolo[1,5-a][1,4]diazepine-5(6H)-carboxylate]
≤ 100	CON(C)C(=O)c1cc2n(n1)CCN(C(=O)OCc1cc(C(F)(F)F)cc(C(F)(F)F)c1)C2 [Example 400, 3,5-bis(trifluoromethyl)benzyl 2-(methoxy(methyl)carbamoyl)-6,7-dihydropyrazolo[1,5-a]pyrazine-5(4H)-carboxylate]
≤ 100	CCOC(=O)c1cc2n(n1)CCCN(C(=O)OCc1cc(Cl)cc(C(F)(F)F)c1)C2 [Example 404]
≤ 250	CN1CCC(c2cc3n(n2)CCCN(C(=O)OCc2cc(C(F)(F)F)cc(C(F)(F)F)c2)C3)C1 (centres unmarked) [Example 385]
≤ 100	O=C(CN1CC2CC2C1)c1cc2n(n1)CCN(C(=O)OCc1cc(C(F)(F)F)cc(C(F)(F)F)c1)C2 (centres unmarked) [Example 258]
≤ 100	O=C(NCC1CC1)c1cc2n(n1)CCCN(C(=O)OCc1cc(C(F)(F)F)cc(C(F)(F)F)c1)C2 [Example 502]
≤ 100	CC1(C)CNCCN1C(=O)c1cc2n(n1)CCN(C(=O)OCc1cc(C(F)(F)F)cc(C(F)(F)F)c1)C2 [Example 441]
≤ 100	O=C(OCc1cc(C(F)(F)F)cc(C(F)(F)F)c1)N1CCCn2nc(N3CCN(CCO)CC3)cc2C1 [Example 358]
≤ 100	CC1COCC(C)N1CC(=O)c1cc2n(n1)CCCN(C(=O)OCc1cc(Cl)cc(C(F)(F)F)c1)C2 (centres unmarked) [Example 261]
≤ 250	O=C(OCc1cc(C(F)(F)F)cc(C(F)(F)F)c1)N1CCCn2nc(N3CCNCC3)cc2C1 [Example 339]
≤ 100	CN(C)S(=O)(=O)c1cc2n(n1)CCCN(C(=O)OCc1cc(C(F)(F)F)cc(C(F)(F)F)c1)C2 [Example 302, 3,5-bis(trifluoromethyl)benzyl 2-(N,N-dimethylsulfamoyl)-7,8-dihydro-4H-pyrazolo[1,5-a][1,4]diazepine-5(6H)-carboxylate]
≤ 100	O=C(OCc1cc(C(F)(F)F)cc(C(F)(F)F)c1)N1CCCn2nc(C(=O)N3CCN(CCO)CC3)cc2C1 [Example 298, 3,5-bis(trifluoromethyl)benzyl 2-(4-(2-hydroxyethyl)piperazine-1-carbonyl)-7,8-dihydro-4H-pyrazolo[1,5-a][1,4]diazepine-5(6H)-carboxylate]
≤ 100	CC(c1cc2n(n1)CCN(C(=O)OCc1cc(C(F)(F)F)cc(C(F)(F)F)c1)C2)N1CCCCC1 (centres unmarked) [Example 458]
≤ 100	CC1CC(c2cc3n(n2)CCCN(C(=O)OCc2cc(C(F)(F)F)cc(C(F)(F)F)c2)C3)CC(C)N1 (centres unmarked) [Example 382]
≤ 100	CC1CN(c2cc3n(n2)CCCN(C(=O)OCc2cc(C(F)(F)F)cc(C(F)(F)F)c2)C3)CCN1 (centres unmarked) [Example 343]
≤ 100	CC(NC1CC1)c1cc2n(n1)CCCN(C(=O)OCc1cc(C(F)(F)F)cc(C(F)(F)F)c1)C2 (centres unmarked) [Example 508]
≤ 500	CC1c2cc(C(=O)O)nn2CCCN1C(=O)CCc1cc(Cl)cc(Cl)c1 (centres unmarked) [Example 420]
≤ 100	O=C(OCc1cc(C(F)(F)F)cc(C(F)(F)F)c1)N1CCCn2nc(C3CCCNC3)cc2C1 (centres unmarked) [Example 380]
